How the values were obtained:
[1] = system: Adult male CF No 1 albino mice; experiment: 6 Hz psychomotor seizure test in mice; format: in vivo; settings: 10 mg/kg p.o.
Method: Test compounds were administered using an optimal fluid volume to body fluid ratio. Test compounds were administered to mice in a volume of 0.01 ml/g of body weight (White, H. S., et al., General principles: Experimental selection, quantification, and evaluation of antiepileptic drugs, in Antiepileptic Drugs, Fourth Edition, R. H. Levy, R. H. Mattson, and B. S. Meldrum, Editors. 1995, Raven Press, Ltd.: New York. p. 99-110). The test compound number 6 was administered orally (p.o.). For each of the tests performed on the test compound, a 40% Hydroxypropyl-β-cyclodextrin (Hp-β-CD) stock solution was first prepared and utilized for formulating the test compound number 6 at the desired concentrations for testing via the oral (p.o.) route. Final compound concentrations were administered as suspensions in 20% Hp-β-CD. A 20% Hp-β-CD solution was used for the vehicle groups.
Adult male CF No 1 albino mice (26-35 g) were obtained from Charles River, Portage, Mich. The animals were maintained on an adequate diet (Prolab RMH 3000) and allowed free access to food and water, except during the short time they were removed from their cage for testing. Animals newly received in the laboratory were allowed sufficient time to correct for possible food and water restriction incurred during transit before being employed in testing. All mice were housed in plastic cages in specially constructed rooms with controlled humidity, exchange of air and controlled lighting (12 hours on-12 hours off). The animals were housed, fed, and handled in a manner consistent with the recommendations in the National Council Publication, “Guide for the Care and Use of Laboratory animals.” Experimental Design General Methods Minimal Motor Impairment (MMI):
Groups of four animals each were administered test compounds and each group was tested at one of five time points: 0.25, 0.5, 1, 2, or 4 h post-treatment (White et al. 1995). TPE was determined using the 6 Hz (32 mA) assay. The time (0.25, 0.5, 1, 2, or 4 h post-treatment) at which maximal protection was observed was considered the Time of Peak Effect (TPE). At the TPE determined for this study, or determined previously, compounds were tested in the 6 Hz assay (32 and/or 44 mA), across several doses and comprising doses that elicited little or no protection to full protection. […] Serum Collection for pK/pD Analysis: In various tests, animals were sacrificed following testing, and trunk blood and/or brain tissue (whole brains) was collected for quantification of drug levels. Immediately after testing, animals were decapitated and trunk blood was collected into a BD Vacutainer® tube containing K2EDTA and chilled on ice until centrifugation. […]

[2] = target: T1, human mGlu2 receptor (Homo sapiens, UniProt Q14416); experiment: [35S]GTPγS binding assay, mGluR2 PAM; format: biochemical; settings: in presence of glutamate at EC20; EC50 expressed in M; read-out: GTPγS - hmGluR2 PAM pEC50 (converted)
T1 construct: expressed in transfected cells; host or cells: CHO cells
Method: [^35S]GTPγS Binding Assay
The [^35S]GTPγS binding assay is a functional membrane-based assay used to study G-protein coupled receptor (GPCR) function whereby incorporation of a non-hydrolysable form of GTP, [^35S]GTPγS (guanosine 5′-triphosphate, labelled with […] ^35S), is measured.
Cells were then collected by scraping in PBS and cell suspension was centrifuged (10 min at 4000 RPM in benchtop centrifuge). Supernatant was discarded and pellet gently resuspended in 50 mM Tris-HCl, pH 7.4 by mixing with a vortex and pipetting up and down. The suspension was centrifuged at 16,000 RPM (Sorvall RC-5C plus rotor SS-34) for 10 minutes and the supernatant discarded. The pellet was homogenized in 5 mM Tris-HCl, pH 7.4 using an ultra-turrax homogenizer and centrifuged again (18,000 RPM, 20 min, 4° C.). The final pellet was resuspended in 50 mM Tris-HCl, pH 7.4 and stored at −80° C. in appropriate aliquots before use. Protein concentration was determined by the Bradford method (Bio-Rad, USA) with bovine serum albumin as standard.
Measurement of mGluR2 positive allosteric modulatory activity of test compounds was performed as follows. Test compounds and glutamate were diluted in assay buffer containing 10 mM HEPES acid, 10 mM HEPES salt, pH 7.4, 100 mM NaCl, 3 mM MgCl2 and 10 μM GDP. Human mGlu2 receptor-containing membranes were thawed on ice and diluted in assay buffer supplemented with 14 μg/ml saponin. Membranes were pre-incubated with compound alone or together with a predefined (˜EC20) concentration of glutamate (PAM assay) for 30 min at 30° C. After addition of [^35S]GTPγS (f c. 0.1 nM), assay mixtures were shaken briefly and further incubated to allow [^35S]GTPγS incorporation on activation (30 minutes, 30° C.). Final assay mixtures contained 7 μg of membrane protein in 10 mM HEPES acid, 10 mM HEPES salt, pH 7.4, 100 mM NaCl, 3 mM MgCl2, 10 μM GDP and 2 μg/ml saponin. […] Filters were washed 6 times with ice-cold 10 mM NaH2PO4/10 mM Na2HPO4, pH 7.4. Filters were then air-dried, and 40 μl of liquid scintillation cocktail (Microscint-O) was added to each well. Membrane-bound radioactivity was counted in a Microplate Scintillation and Luminescence Counter from Perkin Elmer.
The concentration-response curves of representative compounds of the present invention—obtained in the presence of EC20 of mGluR2 agonist glutamate to determine positive allosteric modulation (PAM)—were generated using the Lexis software interface (developed at J&J). Data were calculated as % of the control glutamate response, defined as the maximal response that is generated upon addition of glutamate alone. Sigmoid concentration-response curves plotting these percentages versus the log concentration of the test compound were analyzed using non-linear regression analysis. The concentration producing half-maximal effect is then calculated as EC50.
The pEC50 values below were calculated as the −log EC50, when the EC50 is expressed in M. Emax is defined as relative maximal effect (i.e. maximal % effect relative to the control glutamate response).
All compounds were tested in presence of mGluR2 agonist glutamate at a predetermined EC20 concentration, to determine positive allosteric modulation. pEC50 values were calculated from a concentration-response experiment of at least 8 concentrations.

T1 sequence (Q14416 19-872): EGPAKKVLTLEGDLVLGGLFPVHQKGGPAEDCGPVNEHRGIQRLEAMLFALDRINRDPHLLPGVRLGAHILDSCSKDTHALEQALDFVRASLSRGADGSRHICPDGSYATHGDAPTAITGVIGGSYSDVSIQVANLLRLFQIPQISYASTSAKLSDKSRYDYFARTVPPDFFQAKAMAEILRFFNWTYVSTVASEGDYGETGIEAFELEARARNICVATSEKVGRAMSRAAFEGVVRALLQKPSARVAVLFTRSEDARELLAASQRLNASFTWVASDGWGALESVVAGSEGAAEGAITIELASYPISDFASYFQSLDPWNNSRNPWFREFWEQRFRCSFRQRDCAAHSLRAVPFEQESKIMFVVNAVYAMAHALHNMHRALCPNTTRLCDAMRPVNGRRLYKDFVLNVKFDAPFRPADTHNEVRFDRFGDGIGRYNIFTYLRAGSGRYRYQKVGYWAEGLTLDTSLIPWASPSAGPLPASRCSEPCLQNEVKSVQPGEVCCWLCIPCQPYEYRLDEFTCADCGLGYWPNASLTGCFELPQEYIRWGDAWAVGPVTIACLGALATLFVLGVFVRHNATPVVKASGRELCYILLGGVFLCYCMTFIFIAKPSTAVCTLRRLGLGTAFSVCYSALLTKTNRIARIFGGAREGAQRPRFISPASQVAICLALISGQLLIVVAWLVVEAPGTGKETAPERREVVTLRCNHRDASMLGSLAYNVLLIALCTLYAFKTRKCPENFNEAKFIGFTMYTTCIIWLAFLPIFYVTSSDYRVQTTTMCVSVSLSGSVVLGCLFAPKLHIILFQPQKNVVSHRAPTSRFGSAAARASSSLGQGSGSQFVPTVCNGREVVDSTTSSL

## C[C@H](Oc1ccc(F)cc1F)c1ccn2c(CC3CC3)nnc2c1C(F)(F)F [Compound 6, 3-(Cyclopropylmethyl)-7-[(1S)-1-(2,4-difluorophenoxy)ethyl]-8-(trifluoromethyl)[1,2,4]triazolo[4,3-a]pyridine]
[1]; 6 Hz 32 mA, 1 h
  # protected/# tested: 0/4
[1]; 6 Hz 32 mA, 4 h
  # protected/# tested: 0/4
[1]; dose-response, 6 Hz 32 mA, 0.5 h TPE
  # protected/# tested: 6/8
[1]; dose-response, 6 Hz 44 mA, 0.5 h TPE
  # protected/# tested: 0/8
[2]
  EC50: 40.7 nM

Source: patent US9708315B2, “1,2,4-triazolo[4,3-a]pyridine compounds and their use as positive allosteric modulators of MGLUR2 receptors” (Janssen Pharmaceutica NV, priority 2013, dated 2017)
